Molecules are shown by their SMILES. In brackets after ≈: the same amount, converted by molar mass. Where two headings read alike, the source gives them in different places.

What is called IC50 is the concentration that gives 50% inhibition. The term IC80 denotes the concentration needed for an effect of 80%.

The test system of assay [1] is human hepatocarcinoma (HepG2). As to the kind of experiment: MTT cell viability assay, HepG2. In kind it is cell-based. To be noted: for IC80: 80% growth inhibition. From the text: (§1) In this study, we employed the MTT (3-(4,5-dimethyl thiazol-2-yl)-2,5-diphenyltetrazolium bromide) colorimetric assay to evaluate the cytotoxic activity of selected abietanes (compounds 5, 7, 13, 17, and 19) against three tumor cell lines: human colon adenocarcinoma (HT29), human hepatocarcinoma (HepG2), and murine melanoma (B16–F10). The MTT assay relied on the conversion of MTT to formazan by viable cells, with the formazan concentration proportional to the number of viable cells. The concentrations required for 50 and 80% growth inhibition (IC50 and IC80) were determined for each compound.
(§2) The human colorectal adenocarcinoma cell line HT29 (ECACC no. 9172201; ATCC no. HTB-38), the human hepatocarcinoma cell line HepG2 (ECACC no. 85011430), the mouse melanoma cells B16–F10 (ATCC no. CRL-6475), and the murine monocyte/macrophage like RAW 264.7 cell line (ATCC no, TIB-71) were obtained from the cell bank of the University of Granada, Spain. The tumor cell lines were cultured in DMEM (Dulbecco’s modified Eagle’s medium) supplemented with 2 mM glutamine, 10% heat-inactivated FCS (fetal calf serum), and 50 μg/mL of gentamicin (for all cancer cell lines). The RAW 264.7 cell line was cultured in RPMI1640 medium, supplemented with 2 mM glutamine, 10% heat-inactivated FCS, and 50 μg/mL of gentamicin. All cell lines were incubated at 37 °C, in an atmosphere of 5% CO2 and 95% humidity. The culture media were changed every 48 h, and the confluent cultures were separated with a trypsin solution (0.25% EDTA). In all experiments, monolayer cells were grown to 80–90% confluence in sterile cell culture flasks.
(§3) The effects of the compounds on the cell viability were established using the MTT method (Sigma, St. Louis, MO, USA). The cytotoxicity of the compounds was assessed by measuring the absorbance of MTT dye staining of metabolically competent cells. The cells were cultivated in 96-well plates at 6.0 × 10^3 cells/mL for the HT29 and RAW 264.7 cell lines, at 5.0 × 10^3 cells/mL for B16–F10 cells, and 15.0 × 10^3 cells/mL for the HepG2 cell line, with a final volume of 200 μL per well being incubated with the different products (0–100 μg/mL). After 72 h, 100 μL of MTT solution (0.5 mg/mL) in 50% of PBS and 50% of the medium was added to each well. Following incubation for 1.5 h, formazan was resuspended in 100 μL of DMSO, and each concentration was tested in triplicate. The cell viability relative to the untreated control cells was determined by measuring the absorbance at 570 nm using an ELISA plate reader (Tecan Sunrise MR20–301, TECAN, Grödig, Austria).
For orientation: Tetrazolium assays rely on reduction of a dye to a coloured formazan, in cell work by metabolically active cells.

Assay [2] relates to NO release in LPS-stimulated RAW 264.7 macrophage cells. As to the kind of experiment: Inhibition of nitric oxide production (Griess nitrite assay) in LPS-activated RAW 264.7 macrophages. In kind it is cell-based, murine. Particulars: LPS-stimulated RAW 264.7, 48 h; for NO inhibition: ¾ IC50 concentration; for IC50: Mus musculus, RAW264.7. The method, then: To evaluate the anti-inflammatory activity of the rearranged abietanes (5, 7, 17, and 19) along with their precursor 13, we conducted experiments on RAW 264.7 macrophage cells, a well-known model for screening anti-inflammatory compounds. The macrophages were stimulated with LPS to induce the maximum release of nitric oxide (NO) during the inflammatory response. Subsequently, the different compounds were incubated with the cells at sub-cytotoxic concentrations for 48 h (Figure 9). Next, we determined the concentration of nitrites in the culture medium, which was proportional to the amount of NO release.
Nitrite production was analyzed using the Griess reaction method. The concentration of nitrite was used as an indication of nitric oxide (NO) production. RAW 264.7 cells were seeded at 6 × 10^4 cells/well in 24-well cell culture plates, supplemented with 10 μg/mL of lipopolysaccharide (LPS). […] The Griess reaction was conducted by mixing 150 μL of supernatant test samples or sodium nitrite standard (0–120 μM) with 25 μL of Griess reagent A (0.1% n-(1-naphthyl) ethylenediamine dihydrochloride) and 25 μL of Griess reagent B (1% sulfanilamide in 5% of phosphoric acid) in a 96-well plate. The mixture was incubated at room temperature for 15 min, after which the absorbance was measured at 540 nm using an ELISA plate reader (Tecan Sunrise MR20–301, TECAN, Grödig, Austria). To determine the concentration of nitrite in each sample supernatant, the absorbance was referenced to the nitrite standard curve. To determine the percentage of NO production, the increase between the negative control (untreated cells) and the positive control (cells only with 10 μg/mL of LPS) was assigned 100%.
(In general: The Griess reaction detects nitrite, a stable product of nitric oxide.)

In assay [3] the test system is murine melanoma (B16–F10). As to the kind of experiment: MTT cell viability assay, B16-F10. The assay is classed as cell-based. Particulars: Mus musculus, 72 h; for IC80: 80% growth inhibition.
Excerpt: as §1, §2, §3

The subject of assay [4] is HT29, HepG2 and B16–F10 cell lines. As to the kind of experiment: MTT cell viability assay, span over all three tumor cell lines. In kind it is cell-based. To be noted: 72 h.
Excerpt: as §1
The human colorectal adenocarcinoma cell line HT29 (ECACC no. 9172201; ATCC no. HTB-38), the human hepatocarcinoma cell line HepG2 (ECACC no. 85011430), the mouse melanoma cells B16–F10 (ATCC no. CRL-6475), and the murine monocyte/macrophage like RAW 264.7 cell line (ATCC no, TIB-71) were obtained from the cell bank of the University of Granada, Spain. […]
The effects of the compounds on the cell viability were established using the MTT method (Sigma, St. Louis, MO, USA). The cytotoxicity of the compounds was assessed by measuring the absorbance of MTT dye staining of metabolically competent cells. […] The cell viability relative to the untreated control cells was determined by measuring the absorbance at 570 nm using an ELISA plate reader (Tecan Sunrise MR20–301, TECAN, Grödig, Austria).

Where [5] appears, read: Homo sapiens, HepG2, 72 h, read-out: IC50.

Consider `CC(C)C1=CC2=C(C(=O)C1=O)C1=CC(=O)CC(C)(C)[C@@]1(C)C=C2` [Compound 5, Pygmaeocin B], for which the IC50 in assay [1] (72 h, listed as Pygmaeocin B (5)) was 8.99 ± 1.12 µg/mL (≈ 29 µM); in assay [1] (setting [5]), 8.98 µg/mL (≈ 28.9 µM); in assay [2], 0.033 ± 0.0008 µg/mL (≈ 0.106 µM); in assay [3] it was 13.6 ± 0.14 µg/mL (≈ 43.9 µM). Besides, the 80% effect concentration (IC80) in assay [1] (Homo sapiens, 72 h) came out at 11.4 ± 1.08 µg/mL (≈ 36.8 µM); in assay [3] it was 14.04 ± 0.08 µg/mL (≈ 45.2 µM). This compound also came in with an NO inhibition in assay [2] of 100%.
In the case of `CC(C)C1=CC2=C(C(=O)C1=O)[C@@]1(C)CCCC(C)(C)[C@@H]1CC2` [Compound 13], the IC80 in assay [1] (Homo sapiens, 72 h) was 7.67 ± 0.8 µg/mL (≈ 25.5 µM); in assay [4] (read-out: IC80 values, range in all three cell lines), 5.19 to 7.67 µg/mL (≈ 17.3 to 25.5 µM); in assay [3], 5.41 ± 0.25 µg/mL (≈ 18 µM). For the same compound, the IC50 is 5.58 ± 0.93 µg/mL (≈ 18.6 µM) in assay [1] (setting [5]); 2.03 ± 0.09 µg/mL (≈ 6.76 µM) in assay [2]; 2.67 to 5.58 µg/mL (≈ 8.89 to 18.6 µM) in assay [4] (read-out: IC50 values, range in all three cell lines); 4.14 ± 0.25 µg/mL (≈ 13.8 µM) in assay [3]. In assay [2], the NO inhibition is 99.6%.

These data come from article PMC10487843, “Evaluation of Anticancer and Anti-Inflammatory Activities of Some Synthetic Rearranged Abietanes” (International Journal of Molecular Sciences, 2023).
